Values quoted from earlier work, collected in US9011962B2, “Bovine meat compositions having enhanced quality, nutritive and health values obtained from enrichment diets” (priority 2007, dated 2015).

Columns and labels:
[1] = in vivo

Row | Bioavailability (relative) [1] | Structure (SMILES) | upper limit from food and supplements likely to pose no risk of adverse health effects (FDA) [micrograms per day] | safe daily intake for human use (Rayman review) | lowest-observed adverse effect level of selenium intake (recognized by FDA) [micrograms per day] | no-observed adverse effect level (recognized by FDA) [micrograms per day]
1 | 245 | C[Se]CC[C@H](N)C(=O)O [Selenomethionine, selenomethionine] |  |  |  | 
2 |  | [Se] [selenium] | 400 | approximately 15 micrograms per kilogram body weight per day | 900 | 800
